Experimental data: patent publication US20160168540A1, “COMPOSITION FOR MAINTAINING PLATELET FUNCTION” (KYOTO UNIVERSITY, priority 2013, published 2016)
pIC50: −log10 of the molar value. “Also recorded” adds a separate entry of the source. Where two headings read alike, the source gives them in different places.

Experiments:
[1] = test system: iPS cell-derived platelets; assay: Function-maintaining effect on iPS cell-derived platelets (flow cytometry of CD41a/CD42a/CD42b); type: cell-based, human
Experimental: Human iPS cells (hiPS cells), an iPS cell line (TkDA3-4) established at the University of Tokyo by introducing Oct4, Klf4, Sox2, and c-Myc into human-derived skin cells were cultured on inactivated mouse fibroblasts by treating with 10 μg/mL MitomycinC (manufactured by Wako Pure Chemical Industries Ltd.) in a medium mixture of Dulbecco's modified Eagle's medium and Ham's F-12 medium (manufactured by Sigma-Aldrich Co.) (mixing ratio 1:1) supplemented with 0.1 mM non-essential amino acid (manufactured by Invitrogen Corp.), PSG (100 U/mL penicillin, 100 U/mL streptomycin, and 2 mM L-glutamine) (manufactured by Invitrogen Corp.), 20% knockout serum replacement additive (KSR, manufactured by Invitrogen Corp.), 0.1 mM 2-mercaptoethanol (manufactured by Invitrogen Corp.), and 5 ng/ml basic fibroblast growth factor (bFGF, manufactured by Wako Pure Chemical Industries Ltd.). The cells were subcultured every 3 days, and those cells maintaining an undifferentiated state were used.
In addition, mouse embryo-derived fibroblasts, a C3H10T½ cell line (hereinafter also referred to as “10T½ cells”), purchased from RIKEN BioResource Center were cultured in basal medium Eagle (BME, manufactured by Invitrogen Corp.) supplemented with 10% fetal bovine serum (FBS) and PSG (100 U/mL penicillin, 100 U/mL streptomycin, and 2 mM L-glutamine) (manufactured by Invitrogen Corp.). Then, the 10T½ cells, which had been deactivated in advance by treating with MitomycinC, were seeded so as to give a cell count of 8×10^6/10-cm dish for use as feeder cells. […]
Next, the sac structures were detached from the dish, split open, passed through a 40-μm cell strainer (manufactured by BD), and then centrifuged at 1,500 rpm for 8 minutes to collect hematopoietic progenitor cells. […] Then, the number of cells was counted. […]

TACE (ADAM17) = target: T1, TACE (ADAM17) (Homo sapiens, UniProt P78536); assay: TACE (ADAM17) inhibition test; type: biochemical; conditions: fluorescent synthetic substrate, 37° C. for 1.5 hours
T1 construct: made in house; host or cells: mammalian cells or insect cells
T1 sequence (P78536 215-824): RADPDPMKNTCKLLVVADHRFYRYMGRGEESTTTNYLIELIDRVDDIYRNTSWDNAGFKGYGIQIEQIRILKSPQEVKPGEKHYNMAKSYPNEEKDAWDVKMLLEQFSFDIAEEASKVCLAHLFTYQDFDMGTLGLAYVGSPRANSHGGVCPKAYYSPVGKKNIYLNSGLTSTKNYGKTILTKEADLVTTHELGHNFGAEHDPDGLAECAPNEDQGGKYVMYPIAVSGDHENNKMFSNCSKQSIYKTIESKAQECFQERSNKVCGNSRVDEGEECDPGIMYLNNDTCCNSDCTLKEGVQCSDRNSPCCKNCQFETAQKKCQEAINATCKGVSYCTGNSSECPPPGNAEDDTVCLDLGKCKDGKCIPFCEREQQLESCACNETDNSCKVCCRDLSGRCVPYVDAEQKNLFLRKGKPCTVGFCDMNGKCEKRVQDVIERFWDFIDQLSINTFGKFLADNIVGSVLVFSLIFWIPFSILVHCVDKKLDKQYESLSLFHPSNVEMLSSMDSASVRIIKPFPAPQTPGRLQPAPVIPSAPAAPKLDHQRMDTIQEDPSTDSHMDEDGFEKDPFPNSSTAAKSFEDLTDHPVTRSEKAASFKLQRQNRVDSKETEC
In short: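 Recombinant human TACE (mammalian or insect cell expressed) cleaves Nma-LAQAVRSSK(Dnp)-D-Arg-NH2 quenched substrate, 1.5 h at 37 °C. Fluorescence read at Ex 355/Em 460 nm; IC50 from inhibition vs no-compound control, binned A (<100 nM) or B (≥100 nM).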

[2] = test system: human peripheral blood-derived platelets; assay: Function-maintaining effect on human peripheral blood-derived platelets (CCCP-enhanced GPIbα shedding); type: cell-based; conditions: 0.1 to 100 μM, with 100 μM of CCCP, 37° C. for 24 hours; listed as S-108470
Experimental: First, ACD was added in a ratio of 1/10 to human peripheral blood obtained by collecting blood, and centrifuged at 900 rpm for 10 minutes without a break. The supernatant obtained by the centrifugation was further centrifuged at 1,500 rpm for 10 minutes without a break, and then the supernatant was removed. The obtained precipitate was suspended in a Tyrode-HEPES buffer (not containing calcium). The number of platelets in the suspension was counted, and the platelet-containing suspension (Washed Platelet) was adjusted to have a fixed number (about 5×10^7) of platelets in 200 μL of the Tyrode-HEPES buffer (not containing calcium). Next, as described in Protocol 2 shown in FIG. 1, one of either S-108470 (0.1 to 100 μM), TACE inhibitor S (50 μM), or DMSO was added together with 100 μM of CCCP (carbonyl cyanide m-chlorophenyl hydrazone) to the washed platelets. After incubation at 37° C. for 24 hours, the number of CD42b (GPIbα) (+) cells in the CD41a (+) platelets was measured by flow cytometry. Note that, it is known that addition of CCCP enhances GPIbα shedding on the surface of platelets (see Bergmeier et al., Blood, 2003, vol. 102, pp. 4229-4235).

## Cc1cccn(CC2(c3ccc(F)c(F)c3)NC(=O)NC2=O)c1=O (single isomer, unassigned; (+)) [(+)-I-10, (+)-5-(3,4-difluorophenyl)-5-[(3-methyl-2-oxopyridin-1(2H)-yl)methyl]imidazolidine-2,4-dione]
[1]; 10 and 30 μM, treated for 9 to 10 days
  number of obtained CD41a (+) CD42a (+) platelets compared with the medium control group: slightly larger
[1]; 10 and 30 μM, treated for 9 to 10 days, listed as S-108470
  percentage of CD41a (+) CD42a (+) CD42b (+) platelets compared with the medium control group: significant increase; also recorded: increased the percentage of CD42b (+) cells
[1]; culture system using iPS cells
  cytotoxicity / impact on platelet differentiation: without exhibiting cytotoxicity or having any impact on platelet differentiation
TACE (ADAM17); read-out: TACE IC50
  pIC50: > 7.00
TACE (ADAM17); read-out: TACE inhibitory action, IC50 value
  pIC50: > 7.00
[2]
  inhibition of GPIbα shedding (CD42b (GPIbα) (+) cells in the CD41a (+) platelets): inhibits GPIbα shedding in a concentration-dependent manner; also recorded: suppressed in a concentration-dependent manner
